Laboratory results published in ChEMBL document CHEMBL1201862, “PubChem BioAssay data set” (2004).
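Values below derive from 48-hour exposures of cells grown in 96-well plates, with endpoints linearly interpolated between the two concentrations bracketing the appropriate inhibition level. GI50: concentration for 50% inhibition of growth.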 Calls of active or inactive are those of the source. Rule as the data show it: active = GI50 up to about 1.1 µM and inactive = higher.

Key:
Experiment in all cases: NCI tumour cell line growth inhibition, 48 h
[1] = tested on: UACC-257
[2] = tested on: K562
[3] = tested on: SNB-19
[4] = tested on: EKVX
[5] = tested on: MOLT-4
[6] = tested on: A549
[7] = tested on: Malme-3M
[8] = tested on: LXFL 529
[9] = tested on: M14
[10] = tested on: KM12
[11] = tested on: NCI-H460
[12] = tested on: HOP-62
[13] = tested on: RPMI-8226
[14] = tested on: SN12C
[15] = tested on: HCC 2998
[16] = tested on: NCI-H522
[17] = tested on: U-251
[18] = tested on: UO-31
[19] = tested on: SF-539
[20] = tested on: HL-60
[21] = tested on: SR
[22] = tested on: SK-OV-3
[23] = tested on: HCT-15
[24] = tested on: SK-MEL-28
[25] = tested on: UACC-62
[26] = tested on: SNB-78
[27] = tested on: HT-29
[28] = tested on: DLD-1
[29] = tested on: CCRF-CEM
[30] = tested on: OVCAR-8
[31] = tested on: ACHN
[32] = tested on: 786-0
[33] = tested on: M19-MEL
[34] = tested on: DMS-273
[35] = tested on: IGROV-1
[36] = tested on: LOX IMVI
[37] = tested on: NCI-H23
[38] = tested on: SW-620
[39] = tested on: TK-10
[40] = tested on: COLO 205
[41] = tested on: A498
[42] = tested on: SF-268
[43] = tested on: OVCAR-3
[44] = tested on: SNB-75
[45] = tested on: KM-20L2
[46] = tested on: HCT-116
[47] = tested on: OVCAR-4
[48] = tested on: XF498
[49] = tested on: SK-MEL-5
[50] = tested on: NCI-H226
[51] = tested on: RXF 393
[52] = tested on: SF-295
[53] = tested on: SK-MEL-2
[54] = tested on: DMS-114
[55] = tested on: OVCAR-5
[56] = tested on: HOP-18
[57] = tested on: CAKI-1

`CN(C)c1cccc(-c2cc(O)c3ccccc3n2)c1` was tested, and the GI50 [1] was 31.9 µM (inactive), the GI50 [2] was > 10 µM (inactive) and the GI50 [3] was 39 µM (inactive). For the same molecule, the GI50 [4] was > 100 µM (inactive), the GI50 [5] was 61.5 µM (inactive) and the GI50 [6] was 57.3 µM (inactive). For the same molecule, the GI50 [7] was 31.7 µM (inactive), the GI50 [8] was 57.7 µM (inactive) and the GI50 [9] was 43.3 µM (inactive). For the same molecule, the GI50 [10] was 34.4 µM (inactive), the GI50 [11] was 13.6 µM (inactive) and the GI50 [12] was 53.7 µM (inactive). The GI50 [13] was 34.8 µM (inactive), the GI50 [14] was 47.8 µM (inactive) and the GI50 [15] was 40.4 µM (inactive). For the same molecule, the GI50 [16] was 24.2 µM (inactive), the GI50 [17] was 55.8 µM (inactive) and the GI50 [18] was 47.6 µM (inactive). The GI50 [19] was 30.4 µM (inactive), the GI50 [20] was 28.2 µM (inactive) and the GI50 [21] was 45.5 µM (inactive). For the same molecule, the GI50 [22] was 68.1 µM (inactive), the GI50 [23] was 44.4 µM and the GI50 [24] was 86.1 µM (inactive). For the same molecule, the GI50 [25] was 42 µM (inactive), the GI50 [26] was 82 µM (inactive) and the GI50 [27] was 25.2 µM (inactive). For the same molecule, the GI50 [28] was 26.8 µM (inactive), the GI50 [29] was 41.7 µM (inactive) and the GI50 [30] was 75.9 µM (inactive). For the same molecule, the GI50 [31] was > 100 µM (inactive), the GI50 [32] was 49.7 µM (inactive) and the GI50 [33] was 76.7 µM (inactive). The GI50 [34] was 45.9 µM (inactive), the GI50 [35] was 80.9 µM (inactive) and the GI50 [36] was 71.4 µM (inactive). The GI50 [37] was 54.8 µM (inactive), the GI50 [38] was 37 µM (inactive) and the GI50 [39] was > 100 µM (inactive). For the same molecule, the GI50 [40] was 48.2 µM (inactive).
`COC(=O)CC(NC(=O)OCc1ccccc1)C(C(=O)OCc1ccccc1)C(C)(OC)OC` (stereo unspecified) was tested, and the GI50 [1] was 23.7 µM (inactive), the GI50 [2] was 10.6 µM (inactive) and the GI50 [3] was 38.2 µM (inactive). The GI50 [41] was 3.95 µM (inactive), the GI50 [4] was 29.7 µM (inactive) and the GI50 [42] was 39.9 µM (inactive). The GI50 [5] was 5.94 µM (inactive), the GI50 [6] was 17.3 µM (inactive) and the GI50 [43] was 21.3 µM (inactive). For the same molecule, the GI50 [7] was 28 µM (inactive), the GI50 [44] was 16.4 µM (inactive) and the GI50 [8] was 5.69 µM (inactive). The GI50 [9] was 33.6 µM (inactive), the GI50 [11] was 31.7 µM (inactive) and the GI50 [12] was 44.9 µM (inactive). The GI50 [13] was 10 µM (inactive), the GI50 [14] was 30.5 µM (inactive) and the GI50 [15] was 38 µM (inactive). The GI50 [17] was 27 µM (inactive), the GI50 [45] was 45.4 µM (inactive) and the GI50 [18] was 14.6 µM (inactive). The GI50 [46] was 34.3 µM (inactive), the GI50 [19] was 29.2 µM (inactive) and the GI50 [20] was 15.1 µM (inactive). For the same molecule, the GI50 [21] was 8.81 µM (inactive), the GI50 [47] was 28.6 µM (inactive) and the GI50 [23] was 32.1 µM. For the same molecule, the GI50 [48] was 14.1 µM (inactive), the GI50 [24] was 52.1 µM (inactive) and the GI50 [25] was 10.5 µM (inactive). For the same molecule, the GI50 [49] was 12.4 µM (inactive), the GI50 [50] was 22.6 µM (inactive) and the GI50 [27] was 34.6 µM (inactive). The GI50 [28] was 20.9 µM (inactive), the GI50 [29] was 13 µM (inactive) and the GI50 [30] was 19.5 µM (inactive). The GI50 [31] was 26.4 µM (inactive), the GI50 [32] was 33.3 µM (inactive) and the GI50 [51] was 16.8 µM (inactive). The GI50 [33] was 27.7 µM (inactive), the GI50 [34] was 33.3 µM (inactive) and the GI50 [35] was 19.6 µM (inactive). For the same molecule, the GI50 [52] was 24.6 µM (inactive), the GI50 [36] was 16.6 µM (inactive) and the GI50 [37] was 17.4 µM (inactive). The GI50 [53] was 17.6 µM (inactive), the GI50 [38] was 32.9 µM (inactive) and the GI50 [39] was 39.2 µM (inactive). The GI50 [40] was 16.9 µM (inactive) and the GI50 [54] was 22.8 µM (inactive).
`COc1cc(Nc2c3ccccc3nc3ccccc23)ccc1NS(C)(=O)=O` was tested, and the GI50 [1] was 11.9 µM (inactive), the GI50 [2] was 34.4 µM (inactive) and the GI50 [3] was 5.73 µM (inactive). For the same molecule, the GI50 [41] was 6.31 µM (inactive), the GI50 [4] was 10 µM (inactive) and the GI50 [42] was 4.39 µM (inactive). For the same molecule, the GI50 [5] was 40.7 µM (inactive), the GI50 [6] was 2.42 µM (inactive) and the GI50 [43] was 6.53 µM (inactive). For the same molecule, the GI50 [7] was 7.66 µM (inactive), the GI50 [44] was 7.46 µM (inactive) and the GI50 [8] was 4.8 µM (inactive). The GI50 [9] was 3.14 µM (inactive), the GI50 [10] was 6.97 µM (inactive) and the GI50 [11] was 2.64 µM (inactive). The GI50 [12] was 7.6 µM (inactive), the GI50 [13] was 2.83 µM (inactive) and the GI50 [14] was 2.58 µM (inactive). The GI50 [15] was 14.2 µM (inactive), the GI50 [55] was 11 µM (inactive) and the GI50 [56] was 13.3 µM (inactive). For the same molecule, the GI50 [57] was 3.02 µM (inactive), the GI50 [16] was 3.42 µM (inactive) and the GI50 [17] was 4.59 µM (inactive). The GI50 [45] was 4.46 µM (inactive), the GI50 [18] was 4.41 µM (inactive) and the GI50 [46] was 3.27 µM (inactive). For the same molecule, the GI50 [19] was 4.41 µM (inactive), the GI50 [20] was 4.79 µM (inactive) and the GI50 [21] was 2.72 µM (inactive). For the same molecule, the GI50 [22] was 14.7 µM (inactive), the GI50 [47] was 3.61 µM (inactive) and the GI50 [24] was 7.52 µM (inactive). The GI50 [25] was 6.61 µM (inactive), the GI50 [26] was 7.67 µM (inactive) and the GI50 [49] was 6.53 µM (inactive). The GI50 [50] was 11.2 µM (inactive), the GI50 [27] was 3.34 µM (inactive) and the GI50 [28] was 5.14 µM (inactive). For the same molecule, the GI50 [29] was 28.8 µM (inactive), the GI50 [30] was 4.5 µM (inactive) and the GI50 [31] was 4.11 µM (inactive). For the same molecule, the GI50 [33] was 5.93 µM (inactive), the GI50 [35] was 10.4 µM (inactive) and the GI50 [52] was 3.84 µM (inactive). For the same molecule, the GI50 [36] was 2.67 µM (inactive), the GI50 [37] was > 10 µM (inactive) and the GI50 [53] was 7.53 µM (inactive). The GI50 [38] was 2.61 µM (inactive), the GI50 [40] was 3.48 µM (inactive) and the GI50 [54] was 6.58 µM (inactive).
